Laboratory results: ChEMBL document CHEMBL4610126, “EEDi-5285: An Exceptionally Potent, Efficacious, and Orally Active Small-Molecule Inhibitor of Embryonic Ectoderm Development” (J Med Chem, 2020)

Key:
[1] = test system: KARPAS-422; experiment: Growth inhibition of human KARPAS422 cells incubated for 7 days by WST8 assay; details: KARPAS-422, 168 h
[2] = test system: KARPAS-422; experiment: Antitumor activity against human KARPAS422 cells xenografted in mouse assessed as inhibition of tumor growth at 100 mg/kg, po dosed twice daily for 36 days; type: functional; details: KARPAS-422, po, 864 h, read-out: TGI
[3] = target: Polycomb protein EED (Homo sapiens, UniProt O75530)
Polycomb protein EED, sequence (O75530 whole entry): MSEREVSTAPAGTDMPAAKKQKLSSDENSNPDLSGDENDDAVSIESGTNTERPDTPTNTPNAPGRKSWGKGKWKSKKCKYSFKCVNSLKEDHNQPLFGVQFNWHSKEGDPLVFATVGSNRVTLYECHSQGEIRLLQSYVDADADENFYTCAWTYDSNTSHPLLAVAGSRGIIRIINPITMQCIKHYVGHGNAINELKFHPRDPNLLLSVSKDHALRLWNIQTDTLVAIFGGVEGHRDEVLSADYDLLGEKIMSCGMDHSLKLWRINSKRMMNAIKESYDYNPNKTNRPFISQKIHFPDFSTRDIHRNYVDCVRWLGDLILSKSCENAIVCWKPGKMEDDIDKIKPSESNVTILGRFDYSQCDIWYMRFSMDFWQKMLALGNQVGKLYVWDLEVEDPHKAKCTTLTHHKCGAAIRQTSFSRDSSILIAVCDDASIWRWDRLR

[4] = test system: Pfeiffer; experiment: Growth inhibition of human Pfeiffer cells incubated for 10 days by WST8 assay; type: functional, cell-based; details: 240 h
[5] = test system: Pfeiffer; experiment: Growth inhibition of human Pfeiffer cells incubated for 7 days by WST8 assay; type: functional, cell-based; details: 168 h
[6] = Plasma concentration in mouse at 25 mg/kg, po after 1 hr by LC-MS/MS analysis; type: ADME, organism-based
[7] = Plasma concentration in mouse at 25 mg/kg, po after 3 hrs by LC-MS/MS analysis; type: ADME, organism-based
[8] = Plasma concentration in mouse at 25 mg/kg, po after 6 hrs by LC-MS/MS analysis; type: ADME, organism-based
[9] = test system: KARPAS-422; experiment: Antitumor activity against human KARPAS422 cells xenografted in SCID mouse assessed as induction of tumor regression at 50 mg/kg, po dosed daily for 28 days relative to control; type: functional
[10] = test system: KARPAS-422; experiment: Antitumor activity against human KARPAS422 cells xenografted in SCID mouse assessed as induction of tumor regression at 100 mg/kg, po dosed daily for 28 days relative to control; type: functional
[11] = Toxicity in SCID mouse xenografted with human KARPAS422 cells assessed as induction of body weight loss at 50 to 100 mg/kg, po dosed daily for 28 days; type: organism-based, KARPAS-422; details: in vivo, 672 h
[12] = AUC (0 to t) in mouse at 2 mg/kg, iv by LC-MS/MS analysis; type: ADME, organism-based; details: in vivo
[13] = Terminal half life in mouse at 10 mg/kg, po by LC-MS/MS analysis; type: ADME, organism-based; details: in vivo, read-out: beta t1/2 (converted)
[14] = Cmax in mouse at 10 mg/kg, po by LC-MS/MS analysis; type: ADME, organism-based; parameters: dose 10 mg/kg, route oral; details: in vivo
[15] = AUC (0 to t) in mouse at 10 mg/kg, po by LC-MS/MS analysis; type: ADME, organism-based; details: in vivo
[16] = Plasma clearance in mouse at 2 mg/kg, iv by LC-MS/MS analysis; type: ADME, organism-based
[17] = Volume of distribution at steady state in mouse at 2 mg/kg, iv by LC-MS/MS analysis; type: ADME, organism-based; details: in vivo, read-out: Vdss

Row | SMILES | IC50 [1] | IC50 [3] | IC50 [5] | concentration at 1 h [6] | concentration at 3 h [7] | concentration at 6 h [8] | other results
1 | CS(=O)(=O)c1ccc(-c2cnc(NCc3ccco3)n3cnnc23)cc1 | 180 nM | 17.6 nM |  |  |  |  | inhibition in vivo at 100 mg/kg [2]: 85%
2 | CN(C)[C@H]1CN(C2CCc3cccc(F)c32)C[C@@H]1c1ccc(N2CCN(S(C)(=O)=O)CC2)cc1 (some centres undefined) |  |  |  |  |  |  | IC50 [4]: 69 nM
3 | Cc1ncccc1-c1cnc(NCc2c(F)ccc3c2CCO3)n2cnc(S(C)(=O)=O)c12 | 3.6 nM |  | 0.08 nM | 488 ng/mL | 194 ng/mL | 91 ng/mL | 
4 | CS(=O)(=O)c1ncn2c(NCc3c(F)ccc4c3CCO4)ncc(C3CCN(S(=O)(=O)C4CC4)CC3)c12 | 8.2 nM | 3.1 nM |  |  |  |  | 
5 | CCOC(=O)c1ncn2c(NCc3ccccc3)ncc(-c3ccccc3)c12 | 3000 nM |  |  |  |  |  | 
6 | CCN1CCC(c2cnc(NCc3c(F)ccc4c3CCO4)n3cnc(S(C)(=O)=O)c23)CC1 | 126 nM | 23 nM |  |  |  |  | 
7 | Cc1ccc(-c2cnc(NCc3c(F)ccc4c3CCO4)n3cnc(S(C)(=O)=O)c23)c(C)n1 |  | 0.5 nM |  | 2480 ng/mL | 754 ng/mL | 485 ng/mL | Activity [9]: 100%; Activity [10]: 100%; Activity [11]: Non-Toxic; AUC(0-t) [12]: 800 ng·h/mL; half-life [13]: 2.1 h; Cmax [14]: 1300 ng/mL; AUC(0-t) [15]: 2600 ng·h/mL; clearance [16]: 40 mL/min/kg; Vd [17]: 1.6 L/kg
8 | CCOC(=O)c1ncn2c(NCc3cc(OC)ccc3F)ncc(-c3ccccc3)c12 | 2700 nM |  |  |  |  |  | 
9 | CS(=O)(=O)c1ncn2c(NCc3c(F)ccc4c3CCO4)ncc(-c3ccc(C(F)F)nc3)c12 | 2.4 nM | 0.2 nM | 0.02 nM | 242 ng/mL | 18 ng/mL | < 10 ng/mL | 
10 | CCOC(=O)c1ncn2c(NCc3cccc4c3OCO4)ncc(-c3ccccc3)c12 | 300 nM | 40 nM |  |  |  |  | 
11 | CNC(=O)c1ncn2c(NCc3c(F)ccc4c3CCO4)ncc(-c3ccccc3)c12 | 60 nM |  |  |  |  |  | 
12 | CS(=O)(=O)c1ncn2c(NCc3c(F)ccc4c3CCO4)ncc(-c3ccc(C4CC4)nc3)c12 | 0.5 nM | 0.2 nM | 0.02 nM | 1100 ng/mL | 608 ng/mL | 452 ng/mL | Activity [9]: 100%; Activity [10]: 100%; Activity [11]: Non-Toxic; AUC(0-t) [12]: 1700 ng·h/mL; Cmax [14]: 1800 ng/mL; AUC(0-t) [15]: 6000 ng·h/mL; clearance [16]: 20 mL/min/kg; Vd [17]: 1.4 L/kg
13 | CCOC(=O)c1ncn2c(NCc3cccc4c3CCO4)ncc(-c3ccccc3)c12 | 210 nM |  |  |  |  |  | 
14 | CCOC(=O)c1ncn2c(NCc3cccc4c3OCC4)ncc(-c3ccccc3)c12 | 6300 nM |  |  |  |  |  | 
15 | Fc1ccc2c(c1CNc1ncc(-c3ccccc3)c3c(C(F)(F)F)ncn13)CCO2 | 120 nM |  |  |  |  |  | 
16 | CS(=O)(=O)c1ncn2c(NCc3c(F)ccc4c3CCO4)ncc(-c3ccc(C(F)(F)F)nc3)c12 | 1.7 nM | 0.3 nM | 0.03 nM | 468 ng/mL | 189 ng/mL | 139 ng/mL | 
17 | CC(=O)N1CCC(c2cnc(NCc3c(F)ccc4c3CCO4)n3cnc(S(C)(=O)=O)c23)CC1 | 6.5 nM | 2.8 nM |  |  |  |  | 

Row | SMILES | IC50 [1] | IC50 [3] | IC50 [5] | concentration at 1 h [6] | concentration at 3 h [7] | concentration at 6 h [8] | other results
18 | CS(=O)(=O)c1ccc(-c2cnc(NCc3c(F)ccc4c3CCO4)n3cnc(S(C)(=O)=O)c23)cn1 | 2.9 nM |  | 0.5 nM | 351 ng/mL | 36 ng/mL | 41 ng/mL | 
19 | CS(=O)(=O)c1ncn2c(NCc3c(F)ccc4c3CCO4)ncc(-c3ccccc3)c12 | 2.2 nM |  |  |  |  |  | 
20 | Cn1cc(-c2cnc(NCc3c(F)ccc4c3CCO4)n3cnc(S(C)(=O)=O)c23)cn1 | 3.1 nM | 0.5 nM | 0.27 nM | 468 ng/mL | 50 ng/mL | 56 ng/mL | 
21 | CS(=O)(=O)c1ncn2c(NCc3c(F)ccc4c3CCO4)ncc(C3CCS(=O)(=O)CC3)c12 | 29 nM | 7.8 nM |  |  |  |  | 
22 | CS(=O)(=O)c1ncn2c(NCc3c(F)ccc4c3CCO4)ncc(-c3ccc(F)cc3)c12 | 5.2 nM | 0.4 nM | 0.12 nM | 43 ng/mL | < 10 ng/mL | < 10 ng/mL | 
23 | CCOC(=O)c1ncn2c(NCc3c(F)cccc3OC)ncc(-c3ccccc3)c12 | 300 nM | 50 nM |  |  |  |  | 
24 | Cc1nc(C(F)(F)F)ccc1-c1cnc(NCc2c(F)ccc3c2CCO3)n2cnc(S(C)(=O)=O)c12 | 1.7 nM | 0.4 nM | 0.05 nM | 896 ng/mL | 794 ng/mL | 415 ng/mL | 
25 | Cc1ccc(-c2cnc(NCc3c(F)ccc4c3CCO4)n3cnc(S(C)(=O)=O)c23)cn1 | 1.4 nM |  | 0.03 nM | 340 ng/mL | 94 ng/mL | 29 ng/mL | 
26 | CS(=O)(=O)c1ccc(-c2cnc(NCc3c(F)ccc4c3CCO4)n3cnc(S(C)(=O)=O)c23)cc1 | 1.4 nM |  | 0.02 nM | 598 ng/mL | 171 ng/mL | 109 ng/mL | 
27 | CCOC(=O)c1ncn2c(NCc3ccc(OC)cc3F)ncc(-c3ccccc3)c12 | 4300 nM |  |  |  |  |  | 
28 | CCOC(=O)c1ncn2c(NCc3ccco3)ncc(-c3ccccc3)c12 | 1000 nM |  |  |  |  |  | 
29 | CS(=O)(=O)c1ncn2c(NCc3c(F)ccc4c3CCO4)ncc(C3CCOCC3)c12 | 52 nM | 12 nM |  |  |  |  | 
30 | CNC(=O)c1ncn2c(NCc3ccco3)ncc(-c3ccccc3)c12 | 2400 nM |  |  |  |  |  | 
31 | CP(C)(=O)c1ncn2c(NCc3c(F)ccc4c3CCO4)ncc(-c3ccccc3)c12 | 8.1 nM |  |  |  |  |  | 
32 | Cc1cc(S(C)(=O)=O)ccc1-c1cnc(NCc2c(F)ccc3c2CCO3)n2cnc(S(C)(=O)=O)c12 | 1.6 nM | 0.9 nM | 0.02 nM | 591 ng/mL | 279 ng/mL | 98 ng/mL | 
33 | CS(=O)(=O)c1ncn2c(NCc3c(F)ccc4c3CCO4)ncc(C3CCN(S(C)(=O)=O)CC3)c12 | 15.3 nM | 7.9 nM |  |  |  |  | 
